Where a SMILES comes first, the peptide text is derived from it. Bridges are numbered along the chain shown (N, C = ends). [ ]: non-standard residue; d: D form. dPhe(4-CF3) = N[C@H](Cc1ccc(C(F)(F)F)cc1)C(=O)O; Phe(4-COOH) = N[C@@H](Cc1ccc(C(=O)O)cc1)C(=O)O; R8 = C=CCCCCCC[C@@](C)(N)C(=O)O; S8 = C=CCCCCCC[C@](C)(N)C(=O)O; Cba = N[C@@H](CC1CCC1)C(=O)O; R5 = C=CCCC[C@@](C)(N)C(=O)O; hLeu = CC(C)CC[C@H](N)C(=O)O; S5 = C=CCCC[C@](C)(N)C(=O)O; Nle = CCCC[C@H](N)C(=O)O; Ac3c = NC1(C(=O)O)CC1; Sar = CNCC(=O)O
How the values were obtained:
MDM2 = MDM2 (Homo sapiens, UniProt Q00987); assay: Competitive fluorescence polarization assay for MDM2; type: binding; conditions: competitive FP assay, MDM2; for Ki: read-out: Ki (MDM2); for IC50: read-out: IC50 (MDM2)
Protocol: Dilute 1 mM (in 100% DMSO) of FAM labeled linear peptide with DMSO to 100 μM (dilution 1:10). Then, dilute from 100 μM to 10 μM with water (dilution 1:10) and then dilute with FP buffer from 10 μM to 40 nM (dilution 1:250). This is the working solution which will be a 10 nM concentration in well (dilution 1:4). […] Then, dilute from 5 mM to 500 μM with H2O (dilution 1:10) and then dilute with FP buffer from 500 μM to 20 μM (dilution 1:25).
Dilute 1 mM (in 100% DMSO) of FAM labeled linear peptide with DMSO to 100 μM (dilution 1:10). Then, dilute from 100 μM to 10 μM with water (dilution 1:10) and then dilute with FP buffer from 10 μM to 40 nM (dilution 1:250). This is the working solution which will be a 10 nM concentration in well (dilution 1:4). […] Dilute 10 mM (in 100% DMSO) with DMSO to 5 mM (dilution 1:2). Then, dilute from 5 mM to 500 μM with H2O (dilution 1:10) and then dilute with FP buffer from 500 μM to 20 μM (dilution 1:25). […] Transfer 10 μl of serial diluted unlabeled peptides to each well which is filled with 20 μl of 300 nM of protein. • 7. Add 10 μl of 10 nM (4×) of FAM labeled peptide into each well and incubate for 3 hr to read.

MDMX = biological target: T1, MDMX (Homo sapiens, UniProt O15151); assay: Competitive fluorescence polarization assay for MDMX; type: binding; conditions: competitive FP assay; for Ki: read-out: Ki (MDMX); for IC50: read-out: IC50 (MDMX)
T1 sequence (O15151 1-125): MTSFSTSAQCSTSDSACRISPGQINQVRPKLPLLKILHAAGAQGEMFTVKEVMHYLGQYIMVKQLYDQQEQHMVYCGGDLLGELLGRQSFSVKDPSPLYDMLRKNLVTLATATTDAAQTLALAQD

MDM2, sequence (Q00987 1-125): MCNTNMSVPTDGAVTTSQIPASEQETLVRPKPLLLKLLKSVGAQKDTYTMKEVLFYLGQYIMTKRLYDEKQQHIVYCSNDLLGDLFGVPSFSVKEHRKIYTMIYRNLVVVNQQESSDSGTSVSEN

Structure (SMILES) | Ki (MDM2) | Ki (MDMX) | IC50 (MDM2) | IC50 (MDMX)
CC[C@H](C)[C@H](NC(C)=O)C(=O)N[C@H](C(=O)N[C@@H](Cc1ccccc1)C(=O)N[C@]1(C)CCCCCCC=CCCC[C@@](C)(C(=O)N[C@@H](C)C(=O)N[C@@H](CCC(=O)O)C(=O)N[C@@H](Cc2ccccc2)C(=O)N[C@@H](C)C(N)=O)NC(=O)[C@H](CC(C)C)NC(=O)[C@H](CCC(N)=O)NC(=O)[C@H](C)NC(=O)[C@H](Cc2c[nH]c3ccccc23)NC(=O)[C@H](Cc2c[nH]cn2)NC(=O)[C@H](Cc2ccccc2)NC1=O)[C@@H](C)O [compound 186] (Ac-ITF[R8]FHWAQL[S5]AEFA-NH2; staple 4-11) | < 10 nM | 10 to 100 nM | 10 to 100 nM | 100 to 1000 nM
CSCC[C@H](NC(=O)[C@H](C)NC(=O)[C@H](CO)NC(=O)[C@]1(C)CCCC=CCCCCCC[C@@](C)(NC(=O)[C@H](Cc2ccccc2)NC(=O)[C@@H](NC(=O)[C@H](CC(C)C)NC(C)=O)[C@@H](C)O)C(=O)N[C@@H](C)C(=O)N[C@@H](Cc2ccc(O)cc2)C(=O)N[C@@H](Cc2c[nH]c3ccccc23)C(=O)N[C@@H](C)C(=O)N[C@@H](CCC(N)=O)C(=O)N[C@@H](CC(C)C)C(=O)N1)C(N)=O [compound 5] (Ac-LTF[R8]AYWAQL[S5]SAM-NH2; staple 4-11) | < 10 nM | 10 to 100 nM | 10 to 100 nM | 100 to 1000 nM
CCCC[C@H](NC(=O)[C@H](C)NC(=O)[C@H](C)NC(=O)[C@]1(C)CCCC=CCCCCCC[C@@](C)(NC(=O)[C@H](Cc2ccccc2)NC(=O)[C@@H](NC(=O)[C@H](CC(C)C)NC(=O)[C@H](C)NC(C)=O)[C@@H](C)O)C(=O)N[C@@H](CCC(=O)O)C(=O)N[C@@H](Cc2ccc(O)cc2)C(=O)N[C@@H](Cc2c[nH]c3ccccc23)C(=O)N[C@@H](C)C(=O)N[C@@H](CCC(N)=O)C(=O)N[C@@H](CC(C)C)C(=O)N1)C(=O)N[C@@H](C)C(=O)N[C@@H](C)C(N)=O [compound 378] (Ac-ALTF[R8]EYWAQL[S5]AA[Nle]AA-NH2; staple 5-12) | < 10 nM | 10 to 100 nM | 10 to 100 nM | 10 to 100 nM
CC(=O)N[C@@H](CC(C)C)C(=O)N[C@H](C(=O)N[C@@H](Cc1ccccc1)C(=O)N[C@]1(C)CCCCCCC=CCCC[C@@](C)(C(=O)N[C@@H](CO)C(=O)N[C@@H](C)C(=O)N[C@@H](Cc2ccccc2)C(N)=O)NC(=O)[C@H](CC2CCC2)NC(=O)[C@H](CCC(N)=O)NC(=O)[C@H](C)NC(=O)[C@H](Cc2c[nH]c3ccccc23)NC(=O)[C@H](Cc2ccc(C(=O)O)cc2)NC(=O)[C@H](C)NC1=O)[C@@H](C)O [compound 260] (Ac-LTF[R8]A[Phe(4-COOH)]WAQ[Cba][S5]SAF-NH2; staple 4-11) | < 10 nM | 10 to 100 nM | 10 to 100 nM | 10 to 100 nM
CCCC[C@H](NC(=O)[C@H](C)NC(=O)[C@H](C)NC(=O)[C@]1(C)CCCC=CCCCCCC[C@@](C)(NC(=O)[C@H](Cc2ccccc2)NC(=O)[C@@H](NC(=O)[C@H](CC(C)C)NC(=O)[C@H](C)NC(C)=O)[C@@H](C)O)C(=O)N[C@@H](C)C(=O)N[C@@H](Cc2ccc(O)cc2)C(=O)N[C@@H](Cc2c[nH]c3ccccc23)C(=O)N[C@@H](C)C(=O)N[C@@H](CCC(N)=O)C(=O)N[C@@H](CC(C)C)C(=O)N1)C(=O)N[C@@H](C)C(=O)N[C@@H](C)C(N)=O [compound 321] | < 10 nM | 10 to 100 nM | 10 to 100 nM | 100 to 1000 nM
CC(=O)N[C@@H](Cc1ccccc1)C(=O)N[C@]1(C)CCCCCCC=CCCC[C@@](C)(C(=O)N[C@@H](C)C(=O)N[C@@H](C)C(=O)N[C@@H](CCC(C)C)C(N)=O)NC(=O)[C@H](CC(C)C)NC(=O)C2(CC2)NC(=O)[C@H](CCC(=O)O)NC(=O)[C@H](Cc2c[nH]c3ccccc23)NC(=O)[C@H](Cc2ccc(O)cc2)NC(=O)[C@H](C)NC1=O [compound 17] (Ac-F[R8]AYWE[Ac3c]L[S5]AA[hLeu]-NH2; staple 2-9) | < 10 nM | 10 to 100 nM | 10 to 100 nM | 10 to 100 nM

Other lines, results leading:

Ki (MDM2) | Ki (MDMX) | IC50 (MDM2) | IC50 (MDMX) | Structure (SMILES)
< 10 nM | < 10 nM | – | – | CC(=O)N[C@@H](CC(C)C)C(=O)N[C@H](C(=O)N[C@@H](Cc1ccccc1)C(=O)N[C@]1(C)CCCCCCC=CCCC[C@@](C)(C(=O)N[C@@H](C)C(=O)N[C@@H](C)C(=O)N[C@@H](C)C(N)=O)NC(=O)[C@H](CC2CCC2)NC(=O)[C@H](CCC(N)=O)NC(=O)[C@H](C)NC(=O)[C@H](Cc2c[nH]c3ccccc23)NC(=O)[C@H](Cc2ccc(O)cc2)NC(=O)[C@H](CCC(=O)O)NC1=O)[C@@H](C)O (single isomer, unassigned) [compound 716]
< 10 nM | 10 to 100 nM | – | – | CC(=O)N[C@@H](CC(C)C)C(=O)N[C@H](C(=O)N[C@@H](Cc1ccccc1)C(=O)N[C@]1(C)CCCCCCC=CCCC[C@@](C)(C(=O)N[C@@H](C)C(=O)N[C@@H](C)C(=O)N[C@@H](C)C(=O)N[C@@H](C)C(=O)N(C)CC(=O)N[C@H](C)C(N)=O)NC(=O)[C@H](CC(C)C)NC(=O)[C@H](CCC(N)=O)NC(=O)[C@H](C)NC(=O)[C@H](Cc2c[nH]c3ccccc23)NC(=O)[C@H](Cc2ccc(O)cc2)NC(=O)[C@H](CCC(=O)O)NC1=O)[C@@H](C)O [compound 577] (Ac-LTF[R8]EYWAQL[S5]AAAA[Sar][dA]-NH2; staple 4-11)
– | – | 10 to 100 nM | > 1000 nM | CC(=O)N[C@@H](C(=O)N[C@H](C)C(=O)N[C@H](Cc1c[nH]c2ccccc12)C(=O)N[C@H](Cc1ccc(O)cc1)C(=O)N[C@H](C)C(=O)N[C@@]1(C)CCCCCCC=CCCC[C@](C)(C(=O)N[C@H](C)C(N)=O)NC(=O)[C@@H](CCCNC(=N)N)NC(=O)[C@@H](CC(C)C)NC(=O)[C@@H](CC(C)C)NC(=O)[C@@H](CCCCN)NC(=O)[C@@H](CCC(=O)O)NC(=O)[C@@H](Cc2ccc(C(F)(F)F)cc2)NC1=O)[C@H](C)O [compound 758] (Ac-[dT][dA][dW][dY][dA][S8][dPhe(4-CF3)][dE][dK][dL][dL][dR][R5][dA]-NH2; staple 6-13)
< 10 nM | < 10 nM | 10 to 100 nM | 10 to 100 nM | CCCC[C@H](NC(=O)[C@H](C)NC(=O)[C@H](C)NC(=O)[C@]1(C)CCCC=CCCCCCC[C@@](C)(NC(=O)[C@H](Cc2ccccc2)NC(=O)[C@@H](NC(=O)[C@H](CC(C)C)NC(C)=O)[C@@H](C)O)C(=O)N[C@@H](C)C(=O)N[C@@H](Cc2ccc(O)cc2)C(=O)N[C@@H](Cc2c[nH]c3ccccc23)C(=O)N[C@@H](C)C(=O)N[C@@H](CCC(N)=O)C(=O)N[C@@H](CC(C)C)C(=O)N1)C(=O)N[C@@H](C)C(=O)NC(C)(C)C(N)=O (single isomer, unassigned) [compound 404]
< 10 nM | 10 to 100 nM | 10 to 100 nM | 10 to 100 nM | CC(=O)N[C@@H](CC(C)C)C(=O)N[C@H](C(=O)N[C@@H](Cc1ccccc1)C(=O)N[C@]1(C)CCCCCCCCCCC[C@@](C)(C(=O)N[C@@H](CO)C(=O)N[C@@H](C)C(=O)N[C@@H](C)C(N)=O)NC(=O)[C@H](CC2CCC2)NC(=O)[C@H](CCC(N)=O)NC(=O)[C@H](C)NC(=O)[C@H](Cc2c[nH]c3ccccc23)NC(=O)[C@H](Cc2ccc(O)cc2)NC(=O)[C@H](CCC(=O)O)NC1=O)[C@@H](C)O [compound 434]

Reference: patent publication US8927500B2, “Peptidomimetic macrocycles” (Aileron Therapeutics, Inc., priority 2012, dated 2015)
